# Assay results as given in US20070298144A1, “Method for Protecting Bioactive Food Ingredients Using Decoy Ingredients” (COMPAGNIE GERVAIS DANONE, priority 2004, published 2007).
# “And” between values parts separate entries of the source, which are not always exact repeats. Equal values may be shown once. “Also recorded” adds a separate entry of the source. Read-outs that look alike come from different tables or passages of the source. Where no end group is shown, it is not given here.
# What was measured:
# platelet aggregation = conditions: In vitro; Jollès 1986; Raha 1988; cited from earlier work
# [1] = test system: experimental arterial thrombosis; conditions: Rat and guinea pig with experimental arterial thrombosis; after IV injection; Drouet 1990; cited from earlier work
# [2] = test system: mouse peritoneal macrophages; conditions: In vitro; Parker 1996; cited from earlier work
# arterial pressure [3] = conditions: Normal rats; Nakamura 1995; cited from earlier work
# arterial pressure [4] = conditions: Hypertensive humans (36 subjects); 8 weeks of ingestion of 95 ml/d; Hata 1996; cited from earlier work
# arterial pressure [5] = conditions: Hypertensive rats; after ingestion; Nakamura 1995; cited from earlier work
# [6] = In vivo animal; Migliore-Samour 1988; cited from earlier work
# [7] = test system: Hansen YC-380 lactic ferment; test: Fermentation of dairy mix containing DMV C12 hydrolysate (FIG. 3); design: species or system lactic bacteria; conditions: 1.5 g/l of DMV C12 hydrolysate, fermentation up to pH 4.7
# From the text: FIG. 3: Compared peptide profiles (LC-MS/MS chromatograms) of a dairy “mix” containing 1.5 g/l of DMV C12® hydrolysate, before (1) and after (2) fermentation up to pH 4.7 by the Hansen YC-380 lactic ferment. Virtually all of the hydrolysate peptides, including the bioactive C12 peptide (αS1 [23-34] fragment), disappeared following metabolism by the ferment strains.
# In addition, in order to verify that this phenomenon was not specific to Lactium®, several combinations of ferments and other ingredients containing bioactive peptides were studied by implementing the same test (reconstituted milk and an ingredient to be tested in an amount of 1.5 g/l, fermented under standard conditions, fermentation stopped at pH 4.7, two repetitions).
# Lactobacillus I-2809 = test: Fermentation of Lactium milk by pure strain; conditions: dairy mix containing 1.5 g/l of Lactium; pure strain I-2809; stopped at pH 4.7
# Protocol: (§1) After centrifugation, the supernatant constituted the representative sample of the peptide content of the fermented medium. • Said sample was injected into an Agilent 1100 HPLC system (Agilent Technologies France, 1 rue Galvani, 91745 Massy Cedex, France), equipped with a Waters Symetry® column suitable for peptide analysis (5 μm, 2.1×150 mm, WAT056975, Waters France, 5, rue Jacques Monod, 78280 Guyancourt) at a temperature of 40° C. and a flow rate of 0.25 ml/min. The peptides were eluted in a conventional way with an increasing gradient of solvent B (acetonitrile and 0.100% formic acid) in solvent A (water and 0.106% formic acid) for a period of 40 minutes to 2 hours as a function of the resolution desired. • Detection was carried out using a specific MS/MS detector, for example with an ionic trap device such as the Esquire 3000+(Bruker Daltonique, rue de l'Industrie, 67166 Wissembourg Cedex) set either for overall analysis of peptide content (MS-MS mode) or for the precise and specific quantification of a peptide from its characteristic fragments. For example, the αS1 [91-100] peptide was isolated from its mass (doubly charged ion of mass 634.5 Da) and quantified from the intensity of its characteristic daughter ions after fragmentation (ions for m/z=991.5 Da, 771.5 Da and 658.3 Da). In an even more precise manner, an internal standard comprised of the same doubly deuterated synthetic peptide (993.5 Da characteristic fragment) made it possible to take into account and to exclude potential interference related to the matrix.
# (§2) In order to verify that this phenomenon was not specific to the two ferments used in paragraph 1.1) above, the principle industrial ferments, as well as various pure strains used in the composition of said ferments, were examined using the same test: milk reconstituted from powdered milk, to which Lactium® was added in an amount of 1.5 g/l, was fermented under standard conditions (optimal temperature for the ferment between 37° C. and 42° C., fermentation stopped at pH 4.7, two repetitions). Analysis of the level of bioactive αS1 [91-100] peptide was then carried out on the sample before and after fermentation.
# (§3) In table 3 above, which reflects the consumption of the bioactive αS1 [91-100] peptide by various ferments and industrial strains during the fermentation of a dairy mix containing 1.5 g/l of Lactium®, the pure strains were identified by their CNCM (Pasteur Institute, Paris, France) number and deposit date.
# Lactobacillus I-1519 = test: Fermentation of Lactium milk by pure strain; conditions: dairy mix containing 1.5 g/l of Lactium; pure strain I-1519; stopped at pH 4.7
# Protocol: as §1, §2, §3
# S. thermophilus I-1630 = test: Fermentation of Lactium milk by pure strain; conditions: dairy mix containing 1.5 g/l of Lactium; pure strain I-1630; stopped at pH 4.7
# Protocol: as §1, §2, §3
# S. thermophilus I-1477 = test: Fermentation of Lactium milk by pure strain; conditions: dairy mix containing 1.5 g/l of Lactium; pure strain I-1477; stopped at pH 4.7
# Protocol: as §1, §2, §3
# Lactobacillus I-1632 = test: Fermentation of Lactium milk by pure strain; conditions: dairy mix containing 1.5 g/l of Lactium; pure strain I-1632; stopped at pH 4.7
# Protocol: as §1, §2, §3
# Lactobacillus I-1968 = test: Fermentation of Lactium milk by pure strain; conditions: dairy mix containing 1.5 g/l of Lactium; pure strain I-1968; stopped at pH 4.7
# Protocol: as §1, §2, §3
# [8] = Fermented product heat treated at 75° C for 1 minute, storage at 10° C (FIG. 5); conditions: 75° C. for approximately 1 min; stored at 10° C. until UBD
# Protocol: Since the consumption of the bioactive peptide is caused by the metabolic activity of the ferments, it may be considered useful to reduce this phenomenon by destroying all or part of the microorganisms, for example using a suitable heat treatment (thermization or pasteurization).
# FIG. 5: Curves illustrating the evolution of the residual content in bioactive αS1 [91-100] peptide added after fermentation in a fermented product which was then heat treated at 75° C. for 1 minute and then stored at 10° C. until the use-by date (UBD).
# [9] = test system: ferment consisting of a mixture of the strains I-2783, I-2774, I-2835 and I-1968, or YC-380; test: Fermentation of dairy mix supplemented with Lactium; residual peptides by HPLC-MS/MS; design: species or system lactic bacteria; conditions: 1.5 g/l Lactium added before fermentation; four-strain ferment or YC-380; to pH 4.70
# Protocol: The medium was prepared by hydration of powdered skim milk to 120 g/l, supplemented with 1.5 g/l of Lactium® (corresponding to approximately 30 mg/l of the bioactive αS1 [91-100] peptide), then pasteurized at 95° C. for 8 minutes.
# The lactic ferment was added in a proportion of 0.02% and fermentation was carried out at the optimal temperature for the selected ferment (37-42° C.) until a pH of 4.70 was reached.
# After centrifugation, the supernatant constituted the representative sample of the peptide content of the fermented medium. • Said sample was injected into an Agilent 1100 HPLC system (Agilent Technologies France, 1 rue Galvani, 91745 Massy Cedex, France), equipped with a Waters Symetry® column suitable for peptide analysis (5 μm, 2.1×150 mm, WAT056975, Waters France, 5, rue Jacques Monod, 78280 Guyancourt) at a temperature of 40° C. and a flow rate of 0.25 ml/min. […] For example, the αS1 [91-100] peptide was isolated from its mass (doubly charged ion of mass 634.5 Da) and quantified from the intensity of its characteristic daughter ions after fragmentation (ions for m/z=991.5 Da, 771.5 Da and 658.3 Da). […]
# [10] = test system: ferment containing strains I-2783, I-2774, I-2835 and I-1968; test: Peptide added after fermentation, storage at 10° C (FIG. 4); design: species or system lactic bacteria
# Protocol: FIG. 4: Curves illustrating the evolution of the residual content in bioactive αS1 [91-100] peptide in a final product comprised of 95% mass fermented by the ferment containing strains I-2783, I-2774, I-2835 and I-1968 and 5% flavored sugar syrup containing the αS1 [91-100] peptide, during storage at 10° C. The experiment was comprised of four independent tests: E1, E2, E3 and E4.
# A logical alternative to the procedure studied above is to introduce the functional ingredient after fermentation (“delayed differentiation” procedure), for example with the syrup used to flavor the fermented mass.
# Staphylococcus aureus = conditions: Mouse, sheep; IM injection; Lahov 1996; cited from earlier work
substance,measurement,setting,value
"Human lactotransferrin tetrapeptide (39-42): Human lactotransferrin tetrapeptide (39-42) (RDSP; UniProt P02788 58-61, looked up, fragment)",platelet aggregation,platelet aggregation,Inhibition of platelet
same,antithrombotic activity,[1],"after IV injection, antithrombotic"
"α-lactalbumin 51-53: α-lactalbumin 51-53 (GLF; UniProt P00711 70-72, looked up, fragment)",sheep red blood cell phagocytosis by mouse peritoneal macrophages,[2],Stimulation of sheep red blood
"Peptide 106-116 of bovine κ-casein: Peptide 106-116 of bovine κ-casein (MAIPPKKNQDK; UniProt P02668 127-137, looked up, fragment)",platelet aggregation,platelet aggregation,Inhibition of platelet
II-Pro-Pro,arterial pressure,arterial pressure [3],Normal rats: no effect
same,arterial pressure,arterial pressure [4],decrease in arterial pressure
same,arterial pressure,arterial pressure [5],"ingestion, decrease in arterial"
"Casein 63-68: Bovine β-casein, Casein 63-68 (PGPIPN; UniProt P02666 78-83, looked up, fragment)",protection in vivo,[6],No protection in vivo
"C12 peptide: bioactive C12 peptide (αS1 [23-34] fragment) of DMV C12® hydrolysate (FFVAPFPEVFGK; UniProt P02662 38-49, looked up, fragment)",hydrolysate peptides after fermentation (LC-MS/MS peptide profile),[7],disappeared
"αS1 [91-100] peptide: peptide with anti-convulsive properties contained in milk protein hydrolysates, marketed by Ingredia under the name Lactium® (YLGYLEQLLR; UniProt P02662 106-115, looked up, fragment)",% of αS1 [91-100] peptide remaining after fermentation,Lactobacillus I-2809,0.4%
same,% of αS1 [91-100] peptide remaining after fermentation,Lactobacillus I-1519,0.1%
same,% of αS1 [91-100] peptide remaining after fermentation,S. thermophilus I-1630,0.3%
same,% of αS1 [91-100] peptide remaining after fermentation,S. thermophilus I-1477,0.3%
same,% of αS1 [91-100] peptide remaining after fermentation,Lactobacillus I-1632,0.2%
same,% of αS1 [91-100] peptide remaining after fermentation,Lactobacillus I-1968,1.6%
same,stability of αS1 [91-100] peptide in heat-treated fermented product,[8],possible to assure the stability; also recorded: possible to preserve
same,bioactive αS1 [91-100] peptide consumed after fermentation,[9],more than 95%
same,initial quantity of active peptide left on the use-by date (UBD),"[10]; added cold (4° C.) after fermentation, 1.5 g of Lactium per kg of final product, storage at 10° C.",30-40%
same,αS1 [91-100] peptide disappeared during storage of the final product,"[10]; after 10 days, fresh products whose UBD is 28 days",35-50% and 35-55%
"Casein 191-193: Bovine β-casein, Casein 191-193 (LLY; UniProt P02666 206-208, looked up, fragment)",protection in vivo,[6],No protection in vivo
RPKHPIKHQGLPQEVLNENLLRF [αS1B-casein fragment (1-23 N terminal)],efficacy against Staphylococcus aureus,Staphylococcus aureus,"Mouse, sheep: effective via IM injection"
"Human β-casein 54-59: Human β-casein 54-59 (VEPIPY; UniProt P05814 69-74, looked up, fragment)",sheep red blood cell phagocytosis by mouse peritoneal macrophages,[2],Stimulation of sheep red blood
Val-Pro-Pro,arterial pressure,arterial pressure [3],Normal rats: no effect
same,arterial pressure,arterial pressure [4],decrease in arterial pressure
same,arterial pressure,arterial pressure [5],"ingestion, decrease in arterial"
